Results: patent publication US10988523B2, “Modified lipidated Relaxin B chain peptides and their therapeutic use” (Sanofi, priority 2018, dated 2021)
*1 amine or outer side, *2 acyl side, *3 side chain or, on linkers, in order; H or OH if unused. Where a SMILES comes first, the peptide text is derived from it. Side-chain parts run from the residue outwards. [ ]: non-standard residue; d: D form. The star is where a group is joined. X1 = CCCCCCCCCCCCCCCCCC(=O)N[C@@H](CCC(=O)N[C@@H](CCC(=O)N[C@@H](CCC(=O)NCCCC[C@H](NC(=O)COCC(=O)NCCCOCCOCCOCCCNC(=O)COCC(=O)NCCCOCCOCCOCCCN*)C(N)=O)C(=O)O)C(=O)O)C(=O)O; γGlu = O=C(O)[C@H](CCC(=O)[*:2])N[*:1]; Palmitoyl = CCCCCCCCCCCCCCCC(=O)*; Nle = CCCC[C@H](N)C(=O)O; Aib = CC(C)(N)C(=O)O

Legend:
[1] = Stability testing of peptides in rat plasma or blood; assay type: in vitro ADME; conditions: 37° C.; for Rat plasma stability % remaining T = 0: rat plasma or blood, T = 0 (reference), 5 μM
Procedure: (§1) Prior to the testing of stability in plasma (or blood) of a peptide batch, its purity (HPLC-UV) was determined.
(§2) Rat and Human plasma: anti-coagulant sodium or lithium heparin.
(§3) Rat and Human blood: anti-coagulant sodium or lithium heparin. • Stock solution: • 100 μM solution of study compound in 50 mM Phosphate buffer pH 7.4. • 950 μL plasma (or blood) was pre-incubated for 5 min at 37° C. 50 μL of compound stock solution was added. Final compound concentration=5 μM. Vortex and transfer 1504, plasma (or blood) into an Eppendorf for each time point. The time points […] were carried out in duplicate for each species.
(§4) After incubation 150 μL, plasma (or blood) was extracted with 600 μL, Acetonitrile containing with 1% TFA. Then, vortexed and centrifuged 10 min at 14600 rpm. 200 μL supernatant was dried under N2. The sample was reconstituted in 200 μL of H2O/CH3CN 98/2+0.1% FA+50 ng/ml Labetalol and analyzed using the analytical system used in solubility and stability studies.
(§5) For determination of the amount of the remaining peptide, the peak areas of the target compound at t0 and each time point […] were compared, resulting in “% remaining peptide”, following the equation: % remaining peptide=[(peak area peptide time)×100]/peak area peptide t0. The stability is expressed as “% remaining peptide”.

[2] = Pharmacokinetic (PK) determination after i.v. or s.c. administration to rats; assay type: in vivo, Sprague Dawley rats; conditions: Sprague Dawley, Rat PK
Method in brief: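 Non-compartmental analysis of plasma LC/MS data (protein precipitation, BLQ taken as zero) gave T½, C0 (i.v.), Cmax/Tmax (s.c.) and F% from dose-corrected AUCs. Dosing: 3 mg/kg s.c. or 1 mg/kg i.v. in PBS to Sprague Dawley rats, purity- and salt-corrected.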

RXFP1 = molecular target: T1, RXFP1 (Homo sapiens, UniProt Q9HBX9); assay: OVCAR5 cAMP assay (HTRF), RXFP1 agonist activity; assay type: cell-based; conditions: for EC50: OVCAR5 cells, cAMP HTRF, read-out: EC50 (nM), OVCAR 5 cells (cAMP); for Emax: OVCAR-5, maximal cAMP relative to H2-relaxin maximum (100%), read-out: EMax, OVCAR 5 cells (cAMP)
T1 construct: OVCAR5 cells expressing endogenous RXFP1; endogenous in cells; host or cells: OVCAR5 cells
T1 sequence (Q9HBX9 1-757): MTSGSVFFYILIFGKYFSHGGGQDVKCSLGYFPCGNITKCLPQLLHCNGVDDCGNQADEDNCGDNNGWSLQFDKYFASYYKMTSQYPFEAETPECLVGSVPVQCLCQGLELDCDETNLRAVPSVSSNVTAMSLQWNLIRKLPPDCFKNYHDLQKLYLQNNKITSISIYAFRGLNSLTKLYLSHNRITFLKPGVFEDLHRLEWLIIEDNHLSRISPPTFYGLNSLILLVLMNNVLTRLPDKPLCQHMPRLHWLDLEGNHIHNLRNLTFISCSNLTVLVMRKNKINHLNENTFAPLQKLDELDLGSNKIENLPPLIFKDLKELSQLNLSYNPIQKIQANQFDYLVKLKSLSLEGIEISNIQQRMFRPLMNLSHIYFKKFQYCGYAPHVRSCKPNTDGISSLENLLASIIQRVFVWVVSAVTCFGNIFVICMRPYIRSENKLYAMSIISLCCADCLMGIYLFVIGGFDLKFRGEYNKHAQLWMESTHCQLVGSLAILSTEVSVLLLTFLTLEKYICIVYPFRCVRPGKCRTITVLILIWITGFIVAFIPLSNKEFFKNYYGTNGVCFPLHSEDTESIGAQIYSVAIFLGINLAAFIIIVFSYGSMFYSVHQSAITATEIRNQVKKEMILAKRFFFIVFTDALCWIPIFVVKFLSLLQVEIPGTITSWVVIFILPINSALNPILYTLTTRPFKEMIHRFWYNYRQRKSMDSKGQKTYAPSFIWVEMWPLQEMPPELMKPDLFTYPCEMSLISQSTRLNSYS
Method in brief: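 cAMP accumulation readout: after 1 mM IBMX for 40 min, endogenous-RXFP1 OVCAR5 cells got rising peptide concentrations without FCS, 30 min, 37° C, then lysis with HTRF cAMP reagents. Nonlinear regression gave EC50; Emax expressed relative to H2-relaxin maximum, same occasion.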

[3] = Stability testing of peptides in human plasma or blood; assay type: in vitro ADME; conditions: 37° C.; for Human Plasma stability % remaining T = 0: human plasma or blood, T = 0 (reference), 5 μM
Procedure: as §1, §2, §3, §4, §5

| Structure (SMILES) | Rat plasma stability % remaining T = 0 [1] [%] | remaining at 1 h, 5 µM ([1]; whole blood, rat blood, read-out: Rat stability in blood % remaining 1 h) [%] | remaining at 4 h, 5 µM ([1]; whole blood, rat blood, read-out: Rat stability in blood % remaining 4 h) [%] | C0 ([2]; iv, 1 mg/kg i.v., extrapolated plasma concentration at t=0, read-out: C0) [µM] | half-life ([2]; plasma, iv, 1 mg/kg i.v., read-out: T½ (converted)) [h] | Cmax ([2]; plasma, sc, 3 mg/kg s.c.) [µM] | Tmax ([2]; plasma, sc, 3 mg/kg s.c.) [h] | bioavailability ([2]; plasma, subcutaneous, 3 mg/kg s.c. vs 1 mg/kg i.v., dose-corrected AUC ratio) [%] | EC50 (RXFP1) [nM] | Emax (RXFP1) [%] | Human Plasma stability % remaining T = 0 [3] [%] | remaining at 1 h, 5 µM ([3]; whole blood, human blood, read-out: Human stability in blood % remaining 1 h) [%] | remaining at 4 h, 5 µM ([3]; whole blood, human blood, read-out: Human stability in blood % remaining 4 h) [%] | remaining at 1 h, 5 µM ([1]; rat plasma, read-out: Rat plasma stability % remaining 1 h) [%] | remaining at 4 h, 5 µM ([1]; rat plasma, read-out: Rat plasma stability % remaining 4 h) [%] | remaining at 1 h, 5 µM ([3]; human plasma, read-out: Human Plasma stability % remaining 1 h) [%] | remaining at 4 h, 5 µM ([3]; human plasma, read-out: Human Plasma stability % remaining 4 h) [%] |
| --- | --- | --- | --- | --- | --- | --- | --- | --- | --- | --- | --- | --- | --- | --- | --- | --- | --- |
| CCCCCCCCCCCCCCCC(=O)N[C@@H](CCC(=O)N[C@@H](CCC(=O)N[C@@H](CCC(=O)NCCCC[C@H](NC(=O)[C@H](CCCCN)NC(=O)[C@H](CCCNC(=N)N)NC(=O)C(C)(C)NC(=O)[C@H](CO)NC(=O)[C@H](Cc1c[nH]c2ccccc12)NC(=O)[C@@H](NC(=O)[C@H](CO)NC(=O)[C@H](CCSC)NC(=O)CNC(=O)[C@H](CCC(=O)O)NC(=O)C(C)(C)NC(=O)C(C)(C)NC(=O)[C@@H](NC(=O)[C@H](CCC(N)=O)NC(=O)[C@H](C)NC(=O)[C@H](CCCNC(=N)N)NC(=O)[C@@H](NC(=O)[C@H](CCCCN)NC(=O)[C@H](CCC(=O)O)NC(=O)[C@H](CCCNC(=N)N)NC(=O)CNC(=O)[C@H](CCC(=O)O)NC(=O)[C@H](CC(C)C)NC(C)=O)C(C)C)[C@@H](C)CC)[C@@H](C)O)C(N)=O)C(=O)O)C(=O)O)C(=O)O [compound 7] (Ac-LEGREKVRAQI[Aib][Aib]EGMSTWS[Aib]RKK([γGlu-γGlu-γGlu-Palmitoyl])-NH2) | 100 | 110 | 93 | 4.77 | 4.3 | 1.7 | 6 | 53 | 17.6 | 87 | 100 | 110 | 91 |  |  |  |  |
| CCCCCCCCCCCCCCCCCC(=O)N[C@@H](CCC(=O)N[C@@H](CCC(=O)N[C@@H](CCC(=O)NCCCC[C@H](NC(=O)COCC(=O)NCCCOCCOCCOCCCNC(=O)COCC(=O)NCCCOCCOCCOCCCNC(=O)[C@H](CCCCNC(C)=O)NC(=O)[C@H](CCCCN)NC(=O)[C@H](CCCNC(=N)N)NC(=O)C(C)(C)NC(=O)[C@H](CO)NC(=O)[C@H](Cc1c[nH]c2ccccc12)NC(=O)[C@@H](NC(=O)[C@H](CO)NC(=O)[C@H](CCCC)NC(=O)CNC(=O)[C@H](CCC(=O)O)NC(=O)C(C)(C)NC(=O)C(C)(C)NC(=O)[C@@H](NC(=O)[C@H](CCCCNC(C)=O)NC(=O)[C@H](C)NC(=O)[C@H](CCCNC(=N)N)NC(=O)[C@@H](NC(=O)[C@H](CCCCN)NC(=O)[C@H](CCC(=O)O)NC(=O)[C@H](CCCNC(=N)N)NC(=O)CNC(=O)[C@H](CCC(=O)O)NC(=O)[C@H](CC(C)C)NC(C)=O)C(C)C)[C@@H](C)CC)[C@@H](C)O)C(N)=O)C(=O)O)C(=O)O)C(=O)O [compound 19] (Ac-LEGREKVRAK(Ac)I[Aib][Aib]EG[Nle]STWS[Aib]RKK(Ac)-X1) | 100 |  |  |  |  |  |  |  | 0.15 | 96 | 100 |  |  | 99 | 89 | 86 | 90 |
